What all share (assay type): functional, cell-based, Homo sapiens
For test [1], the system named is CEM-SS. Nature of the test: Effective concentration required for 50% inhibition of viral replication by XTT cytoprotection assay carried out in CEM-SS cells.
Test [2] relates to CEM-SS. Put plainly: Effective concentration required for 50% inhibition of viral replication by syncytium-forming assay carried out in CEM-SS cells.
Test [3] concerns CEM-SS. Nature of the test: Compound was evaluated for inhibitory activity against cell growth.

These results are taken from ChEMBL document CHEMBL1150539, “A novel non nucleoside compound with high in vitro anti-HIV-1 activity. Absolute stereochemistry determination” (Bioorg Med Chem Lett, 1995).

Molecules are shown by their SMILES. pEC50, pIC50: −log10 of the molar value. Where “and” joins values, the source holds several entries; their conditions need not be identical. Identical values can stand only once. Bounds are passed on as bounds.

On to `CC1(C)CCC[C@]2(C)[C@@H](c3ccoc3)C(=O)[C@@H]3O[C@]312`, for which the pEC50 with CEM-SS [1] (Homo sapiens, CEM-SS) is 4.38; with CEM-SS [2] (Homo sapiens, CEM-SS), 4.81. Besides, the pIC50 in the test with CEM-SS [3] (cem-ss) was 4.32 and 3.81.
In the case of `CC1(C)CCC[C@@]2(C)[C@H](c3ccoc3)C(=O)[C@H]3O[C@@]312`, the values for the negative logarithm of the EC50 (pEC50) in the test with CEM-SS [1] (cem-ss) and with CEM-SS [2] (cem-ss) were 6.10 and 6.22, respectively. In addition, the pIC50 in the test on CEM-SS [3] (cem-ss) was 4.38 and 3.87.
For `CC1(C)CCC[C@@]2(C)[C@H](c3ccoc3)C(=O)[C@H]3O[C@@]312` (racemic), the pEC50 is 5.89 in the test with CEM-SS [1] (Homo sapiens, CEM-SS) and 5.77 with CEM-SS [2] (cem-ss). Also, the pIC50 in the test with CEM-SS [3] (cem-ss) is 4.34 and 4.27.
Take `Cc1cn([C@H]2C[C@H](N=[N+]=[N-])[C@@H](CO)O2)c(=O)[nH]c1=O` [ZIDOVUDINE]: the pEC50 in the test on CEM-SS [1] (Homo sapiens, CEM-SS) was 6.52; with CEM-SS [2] (Homo sapiens, CEM-SS) it was 7.70. The pIC50 in the test with CEM-SS [3] (Homo sapiens, CEM-SS) was < 2.72.

Broadly, the pEC50 is −log10 of the EC50, conventionally taken in molar units. Higher therefore signals a low EC50. The pIC50 is −log10 of the IC50, conventionally taken in molar units. Higher therefore signals a low IC50.
